Like-named read-outs stand apart in the source and are kept apart here.
Molecular target: T1, STAT6 (Homo sapiens, UniProt P42226)
T1 construct: endogenous in cells; host or cells: MOLM-16, KU-812, SKNO1, MB231, L1236
T1 sequence (P42226 1-847): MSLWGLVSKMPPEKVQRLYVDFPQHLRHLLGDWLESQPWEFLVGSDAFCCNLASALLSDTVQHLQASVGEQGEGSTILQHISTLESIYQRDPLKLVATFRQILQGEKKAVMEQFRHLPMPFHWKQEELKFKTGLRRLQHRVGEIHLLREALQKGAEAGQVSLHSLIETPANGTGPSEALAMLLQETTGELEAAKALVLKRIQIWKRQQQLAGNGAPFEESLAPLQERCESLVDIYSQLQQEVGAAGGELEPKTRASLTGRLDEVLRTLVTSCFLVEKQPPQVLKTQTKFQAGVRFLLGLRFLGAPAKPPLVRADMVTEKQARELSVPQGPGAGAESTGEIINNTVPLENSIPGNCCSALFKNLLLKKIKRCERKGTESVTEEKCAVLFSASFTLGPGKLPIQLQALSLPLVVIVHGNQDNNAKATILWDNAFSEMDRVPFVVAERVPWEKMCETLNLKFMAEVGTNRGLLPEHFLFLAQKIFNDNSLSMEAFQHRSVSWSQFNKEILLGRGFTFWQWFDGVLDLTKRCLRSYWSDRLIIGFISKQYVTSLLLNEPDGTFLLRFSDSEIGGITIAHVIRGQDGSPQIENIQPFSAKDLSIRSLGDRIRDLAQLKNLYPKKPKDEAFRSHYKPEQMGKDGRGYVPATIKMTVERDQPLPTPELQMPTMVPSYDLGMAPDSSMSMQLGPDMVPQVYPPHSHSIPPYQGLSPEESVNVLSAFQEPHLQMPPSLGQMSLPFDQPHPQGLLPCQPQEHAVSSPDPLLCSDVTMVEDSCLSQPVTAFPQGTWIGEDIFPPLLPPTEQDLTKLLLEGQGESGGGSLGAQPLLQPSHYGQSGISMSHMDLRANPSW
Experiment: Immunoblotting (Western blot) analysis of STAT6 degradation efficiency of degraders in treated cells
Assay type: cell-based
Outline: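 Degradation read by quantitative near-infrared Western blot: equal protein loads (20-40 μg) from compound-treated versus untreated cells, probed overnight at 4° C. for STAT5 or STAT6 with GAPDH reference. Compound concentrations and exposure times as indicated; cells grown in medium with 10% FBS at 37° C.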

[1] = MOLM-16 cells, class symbols, read-out: DC50 S6 MOLM-16
[2] = L1236 cells, read-out: DC50 S6 L1236
[3] = MB231 cells, read-out: DC50 S6 MB231

DC50 [1] [µM]	Compound	DC50 [2] [µM]	DC50 [3] [µM]
> 10	CC(C)(C)[C@H](NC(=O)c1cc2cc(C(F)(F)P(=O)(O)O)ccc2s1)C(=O)N1C[C@@H](OCC(=O)NCC#Cc2cccc3c2C(=O)N(C2CCC(=O)NC2=O)C3=O)C[C@H]1C(=O)N1CCC[C@H](c2ccccc2)C1 (stereo partly drawn) [Compound 493, ((2-(((2S)-1-((2S,4S)-4-(2-((3-(2-(2,6-dioxopiperidin-3-yl)-1,3-dioxoisoindolin-4-yl)prop-2-yn-1-yl)amino)-2-oxoethoxy)-2-((R)-3-phenylpiperidine-1-carbonyl)pyrrolidin-1-yl)-3,3-dimethyl-1-oxobutan-2-yl)carbamoyl)benzo[b]thiophen-5-yl)difluoromethyl)phosphonic acid]		
	Cc1ncsc1-c1ccc(CNC(=O)[C@@H]2C[C@@H](O)CN2C(=O)[C@@H](NC(=O)CCCCCCCCNC(=O)CO[C@@H]2C[C@@H](C(=O)N(C)c3ccc(Br)cc3)N(C(=O)[C@@H](NC(=O)c3cc4cc(C(F)(F)P(=O)(O)O)ccc4s3)C(C)(C)C)C2)C(C)(C)C)cc1 [Compound 420, ((2-(((S)-1-((2S,4R)-2-((4-bromophenyl)(methyl)carbamoyl)-4-(2-((9-(((S)-1-((2S,4R)-4-hydroxy-2-((4-(4-methylthiazol-5-yl)benzyl)carbamoyl)pyrrolidin-1-yl)-3,3-dimethyl-1-oxobutan-2-yl)amino)-9-oxononyl)amino)-2-oxoethoxy)pyrrolidin-1-yl)-3,3-dimethyl-1-oxobutan-2-yl)carbamoyl)benzo[b]thiophen-5-yl)difluoromethyl)phosphonic acid]	> 10	> 10
> 10	CC(C)(C)[C@H](NC(=O)c1cc2cc(C(F)(F)P(=O)(O)O)ccc2s1)C(=O)N1C[C@@H](OCC(=O)NCCCCC#Cc2cccc3c2C(=O)N(C2CCC(=O)NC2=O)C3=O)C[C@H]1C(=O)N1CCC[C@H](c2ccccc2)C1 (stereo partly drawn) [Compound 499, ((2-(((2S)-1-((2S,4S)-4-(2-((6-(2-(2,6-dioxopiperidin-3-yl)-1,3-dioxoisoindolin-4-yl)hex-5-yn-1-yl)amino)-2-oxoethoxy)-2-((R)-3-phenylpiperidine-1-carbonyl)pyrrolidin-1-yl)-3,3-dimethyl-1-oxobutan-2-yl)carbamoyl)benzo[b]thiophen-5-yl)difluoromethyl)phosphonic acid]		
> 10	CC(C)(C)[C@H](NC(=O)c1cc2cc(C(F)(F)P(=O)(O)O)ccc2s1)C(=O)N1C[C@@H](NC(=O)CCCC#Cc2ccc3c(c2)CN(C2CCC(=O)NC2=O)C3=O)C[C@H]1C(=O)N1CCO[C@H](c2ccccc2)C1 (stereo partly drawn) [Compound 588, ((2-(((2S)-1-((2S,4S)-4-(6-(2-(2,6-dioxopiperidin-3-yl)-1-oxoisoindolin-5-yl)hex-5-ynamido)-2-((R)-2-phenylmorpholine-4-carbonyl)pyrrolidin-1-yl)-3,3-dimethyl-1-oxobutan-2-yl)carbamoyl)benzo[b]thiophen-5-yl)difluoromethyl)phosphonic acid]	> 10	
> 10	CC(C)(C)[C@H](NC(=O)c1cc2cc(C(F)(F)P(=O)(O)O)ccc2s1)C(=O)N1C[C@@H](OCC(=O)NCCCCCCCCC#Cc2cccc3c2C(=O)N(C2CCC(=O)NC2=O)C3=O)C[C@H]1C(=O)N1CCO[C@H](c2ccccc2)C1 (stereo partly drawn) [Compound 489, ((2-(((2S)-1-((2S,4S)-4-(2-((10-(2-(2,6-dioxopiperidin-3-yl)-1,3-dioxoisoindolin-4-yl)dec-9-yn-1-yl)amino)-2-oxoethoxy)-2-((R)-2-phenylmorpholine-4-carbonyl)pyrrolidin-1-yl)-3,3-dimethyl-1-oxobutan-2-yl)carbamoyl)benzo[b]thiophen-5-yl)difluoromethyl)phosphonic acid]		
	Cc1ncsc1-c1ccc(CNC(=O)[C@@H]2C[C@@H](O)CN2C(=O)[C@@H](NC(=O)CCCCCCCCCNC(=O)CO[C@@H]2C[C@@H](C(=O)N(C)c3ccc(Br)cc3)N(C(=O)[C@@H](NC(=O)c3cc4cc(C(F)(F)P(=O)(O)O)ccc4s3)C(C)(C)C)C2)C(C)(C)C)cc1 [Compound 421, ((2-(((S)-1-((2S,4R)-2-((4-bromophenyl)(methyl)carbamoyl)-4-(2-((10-(((S)-1-((2S,4R)-4-hydroxy-2-((4-(4-methylthiazol-5-yl)benzyl)carbamoyl)pyrrolidin-1-yl)-3,3-dimethyl-1-oxobutan-2-yl)amino)-10-oxodecyl)amino)-2-oxoethoxy)pyrrolidin-1-yl)-3,3-dimethyl-1-oxobutan-2-yl)carbamoyl)benzo[b]thiophen-5-yl)difluoromethyl)phosphonic acid]	> 10	> 10
> 10	CC(C)(C)[C@H](NC(=O)c1cc2cc(C(F)(F)P(=O)(O)O)ccc2s1)C(=O)N1C[C@@H](OCC(=O)NCC#Cc2cccc3c2C(=O)N(C2CCC(=O)NC2=O)C3=O)C[C@H]1C(=O)N1CCO[C@H](c2ccccc2)C1 (stereo partly drawn) [Compound 479, ((2-(((2S)-1-((2S,4S)-4-(2-((3-(2-(2,6-dioxopiperidin-3-yl)-1,3-dioxoisoindolin-4-yl)prop-2-yn-1-yl)amino)-2-oxoethoxy)-2-((R)-2-phenylmorpholine-4-carbonyl)pyrrolidin-1-yl)-3,3-dimethyl-1-oxobutan-2-yl)carbamoyl)benzo[b]thiophen-5-yl)difluoromethyl)phosphonic acid]		
> 10	CC(C)(C)[C@H](NC(=O)c1cc2cc(C(F)(F)P(=O)(O)O)ccc2s1)C(=O)N1C[C@@H](OCC(=O)NCCCC#Cc2ccc3c(c2)C(=O)N(C2CCC(=O)NC2=O)C3=O)C[C@H]1C(=O)N1CCC[C@H](c2ccccc2)C1 (stereo partly drawn) [Compound 498, ((2-(((2S)-1-((2S,4S)-4-(2-((5-(2-(2,6-dioxopiperidin-3-yl)-1,3-dioxoisoindolin-5-yl)pent-4-yn-1-yl)amino)-2-oxoethoxy)-2-((R)-3-phenylpiperidine-1-carbonyl)pyrrolidin-1-yl)-3,3-dimethyl-1-oxobutan-2-yl)carbamoyl)benzo[b]thiophen-5-yl)difluoromethyl)phosphonic acid]		

Compound	DC50 [1] [µM]	DC50 [2] [µM]	DC50 [3] [µM]
Cc1ncsc1-c1ccc([C@H](C)NC(=O)[C@@H]2C[C@@H](O)CN2C(=O)[C@@H](NC(=O)CCCNC(=O)CC(=O)N2CCN(C(=O)[C@@H](NC(=O)c3cc4cc(C(F)(F)P(=O)(O)O)ccc4s3)C(C)(C)C)[C@H](C(=O)N3CCO[C@H](c4ccccc4)C3)C2)C(C)(C)C)cc1 [Compound 445, (difluoro(2-(((S)-1-((S)-4-(3-((4-(((S)-1-((2S,4R)-4-hydroxy-2-(((S)-1-(4-(4-methylthiazol-5-yl)phenyl)ethyl)carbamoyl)pyrrolidin-1-yl)-3,3-dimethyl-1-oxobutan-2-yl)amino)-4-oxobutyl)amino)-3-oxopropanoyl)-2-((R)-2-phenylmorpholine-4-carbonyl)piperazin-1-yl)-3,3-dimethyl-1-oxobutan-2-yl)carbamoyl)benzo[b]thiophen-5-yl)methyl)phosphonic acid]	> 10	> 10	
CC(C)(C)[C@H](NC(=O)c1cc2cc(C(F)(F)P(=O)(O)O)ccc2s1)C(=O)N1CCN(C(=O)CC(=O)NCCCCCCCCCC#Cc2ccc3c(c2)C(=O)N(C2CCC(=O)NC2=O)C3=O)C[C@H]1C(=O)N1CCO[C@H](c2ccccc2)C1 (stereo partly drawn) [Compound 520, ((2-(((2S)-1-((2S)-4-(3-((11-(2-(2,6-dioxopiperidin-3-yl)-1,3-dioxoisoindolin-5-yl)undec-10-yn-1-yl)amino)-3-oxopropanoyl)-2-((R)-2-phenylmorpholine-4-carbonyl)piperazin-1-yl)-3,3-dimethyl-1-oxobutan-2-yl)carbamoyl)benzo[b]thiophen-5-yl)difluoromethyl)phosphonic acid]	> 10		
CC(C)(C)[C@H](NC(=O)c1cc2cc(C(F)(F)P(=O)(O)O)ccc2s1)C(=O)N1CCN(C(=O)CC(=O)NCCCCCCCCCC#Cc2cccc3c2C(=O)N(C2CCC(=O)NC2=O)C3=O)C[C@H]1C(=O)N1CCO[C@H](c2ccccc2)C1 (stereo partly drawn) [Compound 519, ((2-(((2S)-1-((2S)-4-(3-((11-(2-(2,6-dioxopiperidin-3-yl)-1,3-dioxoisoindolin-4-yl)undec-10-yn-1-yl)amino)-3-oxopropanoyl)-2-((R)-2-phenylmorpholine-4-carbonyl)piperazin-1-yl)-3,3-dimethyl-1-oxobutan-2-yl)carbamoyl)benzo[b]thiophen-5-yl)difluoromethyl)phosphonic acid]	> 10		
